In paper PMC7970697, “Inhibition and Induction by Poziotinib of Different Rat Cytochrome P450 Enzymes In Vivo and in an In Vitro Cocktail Method” (Frontiers in Pharmacology, 2021):
Read-outs that look alike come from different tables or passages of the source.

What was measured:
[1] = molecular target: T1, cyp2c11 (Rattus norvegicus, UniProt P08683); test: Effect of poziotinib on cyp2c11 activity in rats (tolbutamide pharmacokinetics); assay type: in vivo, Sprague-Dawley rats; design: from tissue; host or cells: living male Sprague-Dawley rats (whole animal); settings: poziotinib 5 mg/kg oral 7 days, tolbutamide probe
T1 sequence (P08683 1-500): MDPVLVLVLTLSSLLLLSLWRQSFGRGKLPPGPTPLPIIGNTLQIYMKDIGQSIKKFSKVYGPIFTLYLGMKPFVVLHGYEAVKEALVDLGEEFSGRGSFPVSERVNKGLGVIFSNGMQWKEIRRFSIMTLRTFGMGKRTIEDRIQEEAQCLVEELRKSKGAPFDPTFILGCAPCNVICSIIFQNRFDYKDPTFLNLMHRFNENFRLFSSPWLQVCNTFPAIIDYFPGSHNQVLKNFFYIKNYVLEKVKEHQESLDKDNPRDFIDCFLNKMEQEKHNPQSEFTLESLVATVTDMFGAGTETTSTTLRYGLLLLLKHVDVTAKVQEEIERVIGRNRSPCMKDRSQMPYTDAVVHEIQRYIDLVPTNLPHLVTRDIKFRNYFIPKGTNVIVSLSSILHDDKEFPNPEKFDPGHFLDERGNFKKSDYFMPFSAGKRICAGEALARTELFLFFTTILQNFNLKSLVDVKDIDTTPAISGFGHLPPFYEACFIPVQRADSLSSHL
Experimental: (§2) Twelve male Sprague-Dawley rats (230 ± 20 g) were randomly divided into treated and control groups, with 6 in each group. […] The supernatant was mixed with 200 μL of acetonitrile and 20 μL of 0.5 μg/ml diazepam (IS), vortexed for 30 s, centrifuged at 13,000 rpm for 5 min, and the supernatant was injected into the UPLC-MS/MS system for analysis.
(§3) Pharmacokinetic parameters were calculated using DAS software (Version 3.2.8). SPSS software (version 16.0; SPSS Inc., Chicago, IL, United States) was used to analyze the significance of differences between the main pharmacokinetic parameters. p < 0.05 was considered statistically significant. GraphPad (version 8.0; GraphPad Software Inc., San Diego, CA, United States) was used to calculate IC50 and plot the plasma concentration-time curves and inhibition plots (type of inhibition, time- and concentration-dependence).

[2] = design: method as in He et al., 2019; Kim T. Y. et al., 2019; settings: treatment, ref He et al., 2019, Kim T. Y. et al.; cited from earlier work
[3] = molecular target: T2, cyp2e1 (Rattus norvegicus, UniProt P05182); test: Cocktail method IC50 in rat liver microsomes, chlorzoxazone probe; assay type: in vitro ADME
T2 construct: To this cocktail, 1 mg/ml of RLMs; from tissue; host or cells: rat liver microsomes, prepared in-house
T2 sequence (P05182 whole entry): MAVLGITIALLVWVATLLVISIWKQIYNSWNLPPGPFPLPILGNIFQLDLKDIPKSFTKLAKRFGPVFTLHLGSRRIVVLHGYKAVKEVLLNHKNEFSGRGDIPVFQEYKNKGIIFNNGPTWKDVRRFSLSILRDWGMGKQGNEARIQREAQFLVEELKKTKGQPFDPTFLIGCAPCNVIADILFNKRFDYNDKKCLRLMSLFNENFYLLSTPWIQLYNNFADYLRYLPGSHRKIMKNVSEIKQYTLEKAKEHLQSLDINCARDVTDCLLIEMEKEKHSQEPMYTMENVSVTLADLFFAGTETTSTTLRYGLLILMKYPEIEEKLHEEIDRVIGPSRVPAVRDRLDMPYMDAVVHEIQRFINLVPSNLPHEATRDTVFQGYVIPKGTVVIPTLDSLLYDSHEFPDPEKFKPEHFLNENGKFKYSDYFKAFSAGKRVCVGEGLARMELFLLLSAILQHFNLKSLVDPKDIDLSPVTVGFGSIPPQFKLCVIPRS
Experimental: (§1) The cocktail method was employed to analyze the effects of poziotinib on cyp1a2, cyp2b1, cyp2c11, cyp2d1, cyp2e1, and cyp3a1/2. […] Then half-maximal inhibitory concentration (IC50) of poziotinib was determined with all of the CYPs. […]. To this cocktail, 1 mg/ml of RLMs, 100 mM potassium phosphate buffer (pH 7.4), poziotinib (1, 2.5, 5, 10, 25, 50, or 100 μM) were added to obtain a final volume of 200 μL. After pre-incubation of this mixture for 5 min in a shaking water bath at 37°C, 1 mM NADPH was added to start the reaction. The reactions were allowed to proceed for 30 min, after which 200 μL of acetonitrile and 20 μL of IS were added to terminate the reactions. The mixtures were vortexed for 30 s and centrifuged again at 13,000 rpm for 5 min.

[4] = molecular target: T3, cyp1a2 (Rattus norvegicus, UniProt P04799); test: Cocktail method IC50 in rat liver microsomes, phenacetin probe; assay type: in vitro ADME
T3 construct: To this cocktail, 1 mg/ml of RLMs; from tissue; host or cells: rat liver microsomes, prepared in-house
T3 sequence (P04799 1-513): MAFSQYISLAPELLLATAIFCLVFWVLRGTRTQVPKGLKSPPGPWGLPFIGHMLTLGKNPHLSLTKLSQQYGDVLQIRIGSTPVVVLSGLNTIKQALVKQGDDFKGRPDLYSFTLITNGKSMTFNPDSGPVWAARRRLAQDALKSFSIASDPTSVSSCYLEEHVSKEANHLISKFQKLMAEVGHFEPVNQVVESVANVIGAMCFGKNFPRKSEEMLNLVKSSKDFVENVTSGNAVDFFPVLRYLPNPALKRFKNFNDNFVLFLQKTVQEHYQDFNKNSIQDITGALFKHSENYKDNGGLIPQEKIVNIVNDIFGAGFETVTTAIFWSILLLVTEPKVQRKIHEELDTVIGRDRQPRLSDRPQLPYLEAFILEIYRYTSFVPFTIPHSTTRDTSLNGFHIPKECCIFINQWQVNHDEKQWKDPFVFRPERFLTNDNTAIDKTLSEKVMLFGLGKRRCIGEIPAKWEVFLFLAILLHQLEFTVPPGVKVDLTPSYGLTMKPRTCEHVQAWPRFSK
Experimental: as §1

[5] = tested on: cyp3a1/2; test: Effect of poziotinib on cyp3a1/2 activity in rats (midazolam pharmacokinetics); assay type: in vivo, Sprague-Dawley rats; settings: poziotinib 5 mg/kg oral 7 days, midazolam probe
Experimental: as §2, §3

[6] = molecular target: T1, cyp2c11; test: Time- and concentration-dependent inhibition in RLMs, tolbutamide; assay type: in vitro ADME; design: from tissue; host or cells: rat liver microsomes, prepared in-house
Experimental: A mixture containing 1 mg/ml of RLMs, different concentrations of poziotinib (0, 2, 4, 8 and16 μM for 2b1; 0, 5, 10 20 and 40 μM for 2c11), and NADPH was pre-incubated at 37°C for 0, 5, 10, and 20 min; Methanol instead of poziotinib was performed as control. Then 20 μM bupropion or 100 μM tolbutamide was added and incubated at 37°C for 30 min. The reactions were carried out and analyzed in triplicate as described in 2.3.

[7] = tested on: CYP3A4 and CYP2D6; design: method as in Kim et al., 2013; settings: LC-MS/MS; ref Kim et al., 2013; cited from earlier work
[8] = molecular target: T4, cyp2b1 (Rattus norvegicus, UniProt P00176); test: Effect of poziotinib on cyp2b1 activity in rats (bupropion pharmacokinetics); assay type: in vivo, Sprague-Dawley rats; design: from tissue; host or cells: living male Sprague-Dawley rats (whole animal); settings: poziotinib 5 mg/kg oral 7 days, bupropion probe
T4 sequence (P00176 1-491): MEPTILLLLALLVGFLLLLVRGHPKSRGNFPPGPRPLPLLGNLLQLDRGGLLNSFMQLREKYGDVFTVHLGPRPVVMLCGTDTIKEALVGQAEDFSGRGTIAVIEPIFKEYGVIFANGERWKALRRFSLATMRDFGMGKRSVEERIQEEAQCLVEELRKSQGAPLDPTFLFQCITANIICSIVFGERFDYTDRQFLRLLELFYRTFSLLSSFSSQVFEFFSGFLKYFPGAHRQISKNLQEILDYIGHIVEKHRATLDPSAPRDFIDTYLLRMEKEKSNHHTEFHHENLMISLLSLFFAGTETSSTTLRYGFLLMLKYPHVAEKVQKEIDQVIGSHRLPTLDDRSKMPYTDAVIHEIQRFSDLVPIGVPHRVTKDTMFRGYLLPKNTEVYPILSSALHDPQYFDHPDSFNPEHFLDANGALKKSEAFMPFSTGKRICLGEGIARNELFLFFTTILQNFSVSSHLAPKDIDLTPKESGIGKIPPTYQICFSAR
Experimental: as §2, §3

## C=CC(=O)N1CCC(Oc2cc3c(Nc4ccc(Cl)c(Cl)c4F)ncnc3cc2OC)CC1 [Poziotinib]
[1]
  effect on cyp2c11 activity in rats: significantly inhibitory effect
[2]
  common adverse reactions: rash, diarrhea, and itching
[3]
  inhibitory effect on cyp2e1 (in words): did not show any obvious inhibitory effect
[3]; 40 μM chlorzoxazone, cocktail, 30 min
  IC50: 156 µM
[3]; listed as poziotinib
  inhibitory effect on cyp2e1 (in words): not obvious
[4]
  inhibitory effect on cyp1a2 (in words): did not show any obvious inhibitory effect
[4]; 40 μM phenacetin, cocktail, 30 min
  IC50: 128 µM
[4]; listed as poziotinib
  inhibitory effect on cyp1a2 (in words): not obvious
[5]
  effect on cyp3a1/2 activity in rats: no significant inhibitory effect
[6]; pre-incubation 0, 5, 10, 20 min, poziotinib 5-40 μM
  time- and concentration-dependent inhibition of cyp2c11: no time- or concentration-dependent inhibitory effects
[6]; pre-incubation 0, 5, 10, 20 min with NADPH
  reversibility of inhibition of cyp2c11: reversible
[7]
  enzymes producing main metabolites M1 (dihydroxylation) and M2 (demethylation): mainly produced by CYP3A4 and CYP2D6 activity
[8]
  effect on cyp2b1 activity in rats: inhibitory effect
